Laboratory results reported in patent US20240166703A1, “ANTI-INFLAMMATORY PEPTIDE AND METHOD OF USE THEREOF” (The Regents of the University of California, priority 2021, published 2024).
Positions count from the first letter of the chain named. “Also recorded” adds a separate entry of the source.

Legend:
[1] = tested on: NF-κB DNA binding in RAW 264.7 murine macrophage cells; assay: EMSA of NF-κB DNA binding, nuclear lysates of LPS-treated RAW 264.7 cells; assay type: cell-based; conditions: RAW 264.7 cells, 100 ng/mL LPS for 2 hours
Experimental: (§1) To prepare nuclear and cytoplasmic protein extracts, HeLa, MEF, and RAW 264.7 cells were lysed in buffer containing 4.3 mM Na2HPO4, 1.47 mM KH2PO4 pH 7.4, 137 mM NaCl, 2.7 mM KCl, 1 mM DTT, 0.05% (v/v) NP-40, and 1×protease inhibitor cocktail for 10 minutes on ice and spun at 3,000 rpm at 4° C. for 10 minutes. The supernatant containing the cytoplasmic fraction was quantified by Bio-Rad protein assay to determine the total amount of protein. Pellets were resuspended in nuclear extraction buffer (25 mM Tris-HCl pH 7.5, 420 mM NaCl, 10% glycerol, 0.2 mM EDTA, 1 mM DTT, 0.5 mM PMSF, 1×protease inhibitor cocktail) once and then subjected to three lysis cycles (freeze at −80° C. and thaw at 37° C.). Finally, samples were centrifuged at 13,000 rpm at 4° C. for 20 minutes, and supernatants containing the soluble nuclear fraction were measured by the Bio-Rad protein assay to determine the total amount of protein. Nuclear and cytoplasmic extracts were aliquoted and kept at −80° C.
HeLa, MEF, RAW 264.7 cells were cultured in Dulbecco's MEM containing 10% fetal bovine […] supplemented with penicillin and streptomycin, at 37° C. in a humidity incubator with 5% CO2. RAW 264.7 cells were seeded and allowed to adhere for 24 hours then treated with NEMO^ActPep or NEMO^ActPep 6G at different concentrations 60 min before the LPS challenge (100 ng/ml). After 2 hours, nuclear and cytoplasmic extracts were collected. […]
(§2) Electrophoretic mobility shift assay (EMSA) was performed using recombinant full length NF-κB ReIA homodimer as a positive control as previously described (45). […] The amount of protein in lysates was quantified by Bio-Rad protein assay. EMSA analysis with quantitative densitometry and signal intensity was quantitated using ImageJ software. […]
It was then tested if the observed effect is universal across species and cell types. […] The effect of TAT-NEMO^ActPep on NF-κB DNA binding was also analyzed in MEF cells by EMSA.

[2] = tested on: NF-κB DNA binding activity in HeLa cells; assay: EMSA of NF-κB DNA binding, nuclear extracts of TNF-α-treated HeLa cells; assay type: cell-based, human; conditions: increasing concentrations 10-50 μM; TNF-α-treated HeLa cells
Experimental: as §1
(§3) HeLa, MEF, RAW 264.7 cells were cultured in Dulbecco's MEM containing 10% fetal bovine […] supplemented with penicillin and streptomycin, at 37° C. in a humidity incubator with 5% CO2. RAW 264.7 cells were seeded and allowed to adhere for 24 hours then treated with NEMO^ActPep or NEMO^ActPep 6G at different concentrations 60 min before the LPS challenge (100 ng/ml). After 2 hours, nuclear and cytoplasmic extracts were collected. HeLa and MEF cells seeded for 24 hours then treated with NEMO^ActPep or NEMO^ActPep 6G at different concentrations 60 min before the TNF-α challenge (10 ng/ml) for 15 minutes and then nuclear and cytoplasmic extracts were collected. MEF cells were treated with NEMO^ActPep or NEMO^ActPep 6G at different concentrations 1 hour before the LTβR challenge (300 ng/ml). After 24 hours whole cell extracts were collected and aliquoted and kept at −80° C. for further experiments.
as §2
It is intrigued by the ability of such a small segment (residues 384-389) of human NEMO to mediate interaction with and promote activation loop phosphorylation of IKK2. […] NF-κB activity was measured by EMSA using nuclear extracts and radiolabeled KB DNA from the immunoglobulin kappa light chain gene (Ig-κB) as the probe (FIG. 5A).

[3] = tested on: canonical NF-κB signaling through IKK2 in HeLa cells; assay: Western blot of canonical NF-κB signaling in TNF-α-treated HeLa cells; assay type: cell-based, human; conditions: increasing peptide concentrations
Experimental: as §1, §3
(§4) Equivalent amounts of protein from cell extracts was separated by SDS-PAGE and transferred to polyvinylidene fluoride (PVDF) membranes (Millipore, Bedford, MA, USA). The membrane was blocked with 5% bovine serum albumin (BSA) for 1 hour at room temperature and then the membrane was incubated with the primary antibodies overnight at 4° C. Antibodies for IKK2, His, HA, Myc, GST, Ubiquitin, IκBα, phospho-IKK2, p65/ReIA, p84, γ-Actin, p100/52, phospho-ERK, phospho-JNK, phospho-p38, ERK, JNK, and p38 were used for detecting multiple specific protein targets. After binding of an appropriate secondary antibody coupled to horseradish peroxidase, the immunoreactive bands were visualized by enhanced chemiluminescence substrate.
The inhibitory effects of TAT-NEMO^ActPep were further verified on canonical NF-κB signaling in HeLa cells by assessing IKK2 activation loop phosphorylation, IκBα degradation, and NF-κB ReIA/p65 subunit subcellular localization. Consistent with the observations of decreased nuclear NF-κB DNA binding activity by EMSA, treatment with TAT-NEMO^ActPep blocked IKK2 phosphorylation, IκBα proteolysis, and nuclear translocation of ReIA (FIG. 5B).

[4] = tested on: canonical NF-κB signaling through IKK2 in RAW 264.7 murine macrophage cells; assay: Western blot of canonical NF-κB signaling in LPS-treated RAW 264.7 cells; assay type: cell-based; conditions: 100 ng/mL LPS for 2 hours
Experimental: as §1, §3, §4
It was then tested if the observed effect is universal across species and cell types. The effect of TAT-NEMO^ActPep was tested in RAW 264.7 murine macrophage cells treated with 100 ng/mL purified bacterial lipopolysaccharide (LPS) for 2 hours. Again, NF-κB DNA binding and ReIA subunit nuclear localization were both inhibited as were phosphorylation of the IKK2 activation loop and degradation of IκBα. […] The effect of TAT-NEMO^ActPep on NF-κB DNA binding was also analyzed in MEF cells by EMSA.

[5] = tested on: MAP kinases JNK, Erk2 and p38; assay: Western blot of MAP kinase phosphorylation in TNF-α-treated HeLa cells; assay type: cell-based, human
Experimental: as §4
It was also tested if TAT-NEMO^ActPep has any effect on non-canonical NF-κB signaling. This alternative NF-κB signaling pathway is activated in response to stimulation of specific cytokine receptors and leads to activation of IKK1 and consequent processing of the p100 precursor to the mature NF-κB subunit p52 (30,31). […] To further investigate the possible involvement of TAT-NEMO^ActPep in other signaling pathways, the effect of the peptide on MAPK activation was tested by monitoring the phosphorylation status of JNK, Erk2, and p38 upon TNF-α treatment of HeLa cells. […]

[6] = tested on: non-canonical NF-κB signaling (IKK1, p100 processing); assay: Western blot of p100 processing after LTβR engagement (non-canonical NF-κB signaling); assay type: cell-based; conditions: increasing peptide concentrations; HeLa cells per FIG. 5C legend
Experimental: as §3
Equivalent amounts of protein from cell extracts was separated by SDS-PAGE and transferred to polyvinylidene fluoride (PVDF) membranes (Millipore, Bedford, MA, USA). The membrane was blocked with 5% bovine serum albumin (BSA) for 1 hour at room temperature and then the membrane was incubated with the primary antibodies overnight at 4° C. […]

[7] = target: T1, full length human IKK2 (recombinant, N-terminal hexahistidine-TEV tag) (human, UniProt O14920 1-756); assay: GST pull-down with purified proteins, western blot
T1 construct: mature; Produced in Sf9 insect cells with baculovirus; also called IKKβ; full length IKK2; not shown: TEV cleavage site and vector residues of pFastBacHTb
T1 sequence: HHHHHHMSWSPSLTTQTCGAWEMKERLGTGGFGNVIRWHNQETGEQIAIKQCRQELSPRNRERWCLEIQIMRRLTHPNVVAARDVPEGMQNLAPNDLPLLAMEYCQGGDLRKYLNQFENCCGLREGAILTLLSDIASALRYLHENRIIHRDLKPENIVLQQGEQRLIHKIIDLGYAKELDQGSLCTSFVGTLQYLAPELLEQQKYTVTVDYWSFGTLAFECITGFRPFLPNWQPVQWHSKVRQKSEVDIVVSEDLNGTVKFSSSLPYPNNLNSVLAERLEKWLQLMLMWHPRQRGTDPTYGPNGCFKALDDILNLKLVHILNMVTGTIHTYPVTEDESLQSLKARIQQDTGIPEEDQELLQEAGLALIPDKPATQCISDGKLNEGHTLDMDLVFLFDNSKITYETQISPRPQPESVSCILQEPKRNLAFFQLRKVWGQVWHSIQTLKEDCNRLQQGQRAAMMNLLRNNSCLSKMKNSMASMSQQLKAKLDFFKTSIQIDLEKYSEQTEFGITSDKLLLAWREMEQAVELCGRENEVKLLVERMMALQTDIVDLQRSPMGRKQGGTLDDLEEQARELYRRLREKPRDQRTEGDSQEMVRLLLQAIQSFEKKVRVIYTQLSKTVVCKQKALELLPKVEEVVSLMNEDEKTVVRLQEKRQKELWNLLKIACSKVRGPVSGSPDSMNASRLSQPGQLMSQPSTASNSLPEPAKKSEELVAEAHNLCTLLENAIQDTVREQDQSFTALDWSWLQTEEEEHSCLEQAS

[8] = target: T2, IKK2 (purified recombinant; construct not stated for the experiment of FIG. 2D) (human, UniProt O14920 1-756, limits assumed); assay: GST pull-down with purified proteins in the presence of Ub4, western blot
T2 sequence (looked up): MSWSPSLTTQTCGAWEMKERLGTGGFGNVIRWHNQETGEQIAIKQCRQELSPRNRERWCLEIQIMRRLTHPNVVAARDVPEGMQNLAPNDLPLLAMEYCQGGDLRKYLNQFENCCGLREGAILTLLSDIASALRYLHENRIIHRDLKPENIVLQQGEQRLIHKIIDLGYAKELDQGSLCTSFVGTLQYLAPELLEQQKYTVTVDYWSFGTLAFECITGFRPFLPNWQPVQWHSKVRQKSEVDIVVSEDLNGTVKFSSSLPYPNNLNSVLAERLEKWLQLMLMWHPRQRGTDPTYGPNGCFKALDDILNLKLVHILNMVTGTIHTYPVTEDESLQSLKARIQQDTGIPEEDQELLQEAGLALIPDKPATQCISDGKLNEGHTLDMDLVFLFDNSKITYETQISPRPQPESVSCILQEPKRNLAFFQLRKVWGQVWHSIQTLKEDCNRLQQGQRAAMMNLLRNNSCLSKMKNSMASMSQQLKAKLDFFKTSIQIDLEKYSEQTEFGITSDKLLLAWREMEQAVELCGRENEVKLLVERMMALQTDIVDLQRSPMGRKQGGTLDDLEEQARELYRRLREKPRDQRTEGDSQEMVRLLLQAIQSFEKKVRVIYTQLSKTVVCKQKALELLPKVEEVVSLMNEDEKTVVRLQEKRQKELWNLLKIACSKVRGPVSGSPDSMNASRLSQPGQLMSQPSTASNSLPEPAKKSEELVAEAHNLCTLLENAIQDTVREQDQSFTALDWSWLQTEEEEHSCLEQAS

With “TAT-NEMO^ActPep 6G: control variant of TAT-NEMO^ActPep with NEMO residues 384-389 mutated to glycine (SEQ ID NO 3) (YGRKKRRQRRRGGLSSPLALPSGGGGGGEE) [reference compound]” the “NF-κB DNA binding” value [1] was “did not show such effects”, the “NF-κB-dependent shift of radiolabeled probe (EMSA)” value [2] was “reduction was not observed; also recorded: does not” and the “IKK2 activation loop phosphorylation (western blot)” value [3] was “showed no such effects”. For the same molecule, the “IκBα degradation / proteolysis (western blot)” value [3] was “showed no such effects”, the “NF-κB ReIA/p65 subunit nuclear localization (western blot)” value [3] was “showed no such effects” and the “ReIA subunit nuclear localization (western blot)” value [4] was “did not show such effects”. The “degradation of IκBα (western blot)” value [4] was “did not show such effects”, the “phosphorylation of the IKK2 activation loop (western blot)” value [4] was “did not show such effects” and the “phosphorylation of JNK, Erk2 and p38 MAP kinases (western blot)” value [5] was “Neither TAT-NEMO^ActPep nor TAT-NEMO^ActPep 6G influenced; also recorded: no effect”. For the same molecule, the “processing of p100 in response to LTβR engagement (western blot)” value [6] was “not observed any effect; also recorded: no change in the extent of p100 processing”.

B1: GST-NEMO^111-419 (other, human, UniProt Q9Y6K9 111-419, looked up)
chain: KLDLKRQKEQALREVEHLKRCQQQMAEDKASVKAQVTSLLGELQESQSRLEAATKECQALEGRARAASEQARQLESEREALQQQHSVQVDQLRMQGQSVEAALRMERQAASEEKRKLAQLQVAYHQLFQEYDNHIKSSVVGSERKRGMQLEDLKQQLQQAEEALVAKQEVIDKLKEEAEQHKIVMETVPVLKAQADIYKADFQAERQAREKLAEKKELLQEQLEQLQREYSKLKASCQESARIEDMRKRHVEVSQAPLPPAPAYLSSPLALPSQRRSPPEEPPDFCCPKCQYQAPDMDTLQIHVMECIE
notes: not shown: glutathione-S-transferase (GST) tag of vector pGEX4T-2, N-terminal
B1: no binding [7].

B2: GST-NEMO^241-419 6G (other, human, UniProt Q9Y6K9 241-419, looked up)
chain: YDNHIKSSVVGSERKRGMQLEDLKQQLQQAEEALVAKQEVIDKLKEEAEQHKIVMETVPVLKAQADIYKADFQAERQAREKLAEKKELLQEQLEQLQREYSKLKASCQESARIEDMRKRHVEVSQAPLPPAPAYLSSPLALPSGGGGGGEEPPDFCCPKCQYQAPDMDTLQIHVMECIE
notes: as for B1
B2: no binding [8].

B3: GST-NEMO^241-419 3G (other, human, UniProt Q9Y6K9 241-419, looked up)
chain: B2 chain with G147S, G148P, G149P
notes: as for B1
B3: no binding [8].
